One molecule from publication PMC8998978, “Toward a Treatment of Cancer: Design and In Vitro/In Vivo Evaluation of Uncharged Pyrazoline Derivatives as a Series of Novel SHP2 Inhibitors” (International Journal of Molecular Sciences, 2022) can be followed below.

Data set [1] addresses T1, SHP2 protein in HCT116 cells (Homo sapiens, UniProt Q06124).
T1 construct: endogenous in cells; host or cells: HCT116
T1 sequence (Q06124 1-593): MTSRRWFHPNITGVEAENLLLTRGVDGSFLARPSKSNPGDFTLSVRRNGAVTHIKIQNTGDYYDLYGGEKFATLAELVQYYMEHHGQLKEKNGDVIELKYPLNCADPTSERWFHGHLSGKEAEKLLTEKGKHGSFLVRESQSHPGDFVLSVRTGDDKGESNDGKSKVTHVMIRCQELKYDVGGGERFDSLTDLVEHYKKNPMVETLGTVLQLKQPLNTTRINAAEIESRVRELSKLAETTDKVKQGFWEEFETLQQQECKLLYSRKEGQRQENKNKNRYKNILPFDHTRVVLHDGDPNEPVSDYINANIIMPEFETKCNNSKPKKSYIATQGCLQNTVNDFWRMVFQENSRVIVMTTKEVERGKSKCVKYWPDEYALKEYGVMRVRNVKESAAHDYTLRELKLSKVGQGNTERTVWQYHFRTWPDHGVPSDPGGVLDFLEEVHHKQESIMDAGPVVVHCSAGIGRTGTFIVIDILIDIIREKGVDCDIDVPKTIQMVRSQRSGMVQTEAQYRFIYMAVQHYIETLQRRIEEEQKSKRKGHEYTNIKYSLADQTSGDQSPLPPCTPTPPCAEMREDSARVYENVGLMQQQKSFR
In words: Cellular thermal shift assay (CETSA). The conditions noted are these: HCT116, 10 μM 4o, 3 h, versus DMSO. In kind it is cell-based. How it is done:
The assay was performed as described previously. In brief, HCT116 cells were treated with DMSO or 4o for 3 h. Cells were resuspended in PBS and divided into four aliquots, and then the cell lysates were heated at different temperatures by T100^TM Thermal Cycler (Bio-Rad, Hercules, CA, USA). The heated cells were subjected to repeated freezing and thawing with liquid nitrogen for three times followed by centrifugation at 20,000× g for 20 min at 4 °C. Finally, the supernatants were gathered and boiled for 10 min after adding the loading buffer. Protein levels were assessed by Western blotting.

Another data set relates to HCT116 cells xenograft. In words: Anti-tumor activity in vivo, HCT116 xenograft model. Also on record: species or system BALB/c-nude mice. How it is done:
Male BALB/c-nude mice (Jinan Pengyue Experimental Animal Breeding Co., Ltd., Jinan, China), 5 weeks of age, were used. The mice were housed in a specific pathogen-free room with temperature controlled (22 ± 2 °C), humidity (55 ± 10%) and a light/dark cycle of 12 h, providing sterile food and water. The HCT116 cells xenograft model was conducted, and 1 × 10^7 HCT116 cells were subcutaneously injected into the right armpit of mice. The tumor volume of mice was measured every three days to evaluate the tumor growth. When the tumor volume reached about 100 mm^3, the mice were randomly divided into four groups (n = 6), and treated with vehicle (0.5% CMC-Na solution) or 4o (25, 50 mg/kg) by gavage once a day for 13 consecutive days. A total of 25 mg/kg 5-FU was used as a positive control. The body weight of mice was measured every three days. The length (L) and width (W) of tumors were measured by electronic caliper every three days. The volume (V) was calculated as follows: V = (L × W^2)/2. When the tumor volume reached about 1000 mm^3, the tumors were excised. Immunohistochemical analysis were used to evaluate the related protein levels.

Another data set is described as follows: Acute toxicity assay. The conditions noted are these: for Mortality: 14 days observation. In kind it is in vivo. How it is done:
In acute toxicity assay, 18 female Kunming mice (Jinan Pengyue Experimental Animal Breeding Co., Ltd., Jinan, China), 18–22 g of weight, were used. The mice were randomly divided into three groups (n = 6), and treated with vehicle (0.5% CMC-Na solution) or 4o (300, 2000 mg/kg) by gavage once. The body weight, toxicity effect, general behavior and mortality of mice were monitored within 14 days after 4o treatment. In subacute toxicity assay, 10 male and 10 female Kunming mice (Jinan Pengyue Experimental Animal Breeding Co., Ltd., Jinan, China), 18–22 g of weight, were used. The mice were randomly divided into two groups with 5 males and 5 females, and were orally treated with vehicle (0.5% CMC-Na solution) or 4o (1000 mg/kg) once a day for 28 days. […]. After 28 days of treatment, the mice were anaesthetized with isoflurane and killed by decapitation. The heart, liver, spleen and kidney tissues were collected, and histologically analyzed by H&E staining.

Turning to `CCOc1ccc(Oc2ccc(C3=NN(C4=NC(=O)CS4)C(c4cc(O)c(O)c(Br)c4Br)C3)cc2)cc1` (centres unmarked) [Compound 4o, 2-(5-(2,3-dibromo-4,5-dihydroxyphenyl)-3-(4-(4-ethoxyphenoxy)phenyl)-4,5-dihydro-1H-pyrazol-1-yl)thiazol-4(5H)-one], the “Stability of SHP2 protein (CETSA)” value in data set [1] is “obviously increased”. In the data set with HCT116 cells xenograft (4o 25 mg/kg by gavage once daily, 13 days), this molecule gave a Tumor inhibition rate of 58.8%. The molecule further had a Tumor inhibition rate with HCT116 cells xenograft (4o 50 mg/kg by gavage once daily, 13 days) of 67.2%. In addition, the “Effect on body weight of tumor-bearing mice” value in the data set with HCT116 cells xenograft (4o 25, 50 mg/kg or 5-FU 25 mg/kg, 13 days) is given as “did not have any obvious effect on the body weight”. Moreover, the “Expression of Ki67 and p-Erk in tumors (immunohistochemistry)” value in the data set with HCT116 cells xenograft (4o 25, 50 mg/kg, 13 days) was “significantly decreased”. For the same molecule, the Tumor weight result in the data set on HCT116 cells xenograft (4o 25, 50 mg/kg, after 13 days, versus vehicle) was “much lighter”. In “Acute toxicity assay” (300 mg/kg single oral dose), the “Body Weight (g) Day 0” value is listed as 24.41 ± 0.64 g, the “Body Weight (g) Day 7” value amounted to 28.78 ± 0.78 g, the “Body Weight (g) Day 14” value is 30.75 ± 0.99 g and the Mortality is listed as 0/6. Also, in “Acute toxicity assay” (2000 mg/kg single oral dose), the “Body Weight (g) Day 0” value was found to be 25.19 ± 1.45 g, the “Body Weight (g) Day 7” value is given as 30.51 ± 0.88 g, the “Body Weight (g) Day 14” value is reported as 31.43 ± 1.09 g and the Mortality is recorded as 0/6.
